What follows are compounds tested on BV-2 (assay: Antiinflammatory activity in mouse BV2 cells assessed as inhibition of LPS-induced nitric oxide production after 24 hrs by griess assay). Conditions: BV-2, 24 h.
Type: functional, cell-based

Compound | IC50
C=C(C)C(O)Cc1c(OC)cc(OC)c2ccc(=O)oc12 (stereo unspecified) | 15.5 µM
OC/C=C/c1ccc(O)c(/C=C/[C@@]23CCC(CO)=C[C@H]2c2cc(/C=C/CO)ccc2O[C@H]3O)c1 | > 50 µM
OC/C=C/c1ccc(O)c(/C=C/[C@]23CCC(CO)=C[C@H]2c2cc(/C=C/CO)ccc2O[C@H]3O)c1 | 8.6 µM
COc1ccc2ccc(=O)oc2c1C(=O)C(OC(=O)CC(C)C)=C(C)C | 37.6 µM
O=c1c(O)c(-c2ccc(O)c(O)c2)oc2cc(O)cc(O)c12 [QUERCETIN] | 7.2 µM

More lines, now with the values ahead:

IC50 | Compound
11.8 µM | C=C(C)/C=C/c1c(OC)ccc2ccc(=O)oc12
21.3 µM | C=C(C)[C@H](OC(=O)CC(C)C)[C@H](O)c1c(OC)ccc2ccc(=O)oc12
26.4 µM | C=C(C)[C@H](O)[C@H](OC(=O)CC(C)C)c1c(OC)ccc2ccc(=O)oc12
37.6 µM | C=C(C)[C@@H]1O[C@H](C(=C(C)C)c2c(OC)ccc3ccc(=O)oc23)O[C@@H]1c1c(OC)ccc2ccc(=O)oc12
28.9 µM | C=C(C)[C@H](O)[C@H](C[C@@](C)(O)/C=C/c1c(OC)ccc2ccc(=O)oc12)c1c(OC)ccc2ccc(=O)oc12
16.9 µM | COc1ccc2ccc(=O)oc2c1/C=C\C(C)=O

Reference: ChEMBL document CHEMBL4130612, “Anti-Inflammatory Prenylated Phenylpropenols and Coumarin Derivatives from Murraya exotica” (J Nat Prod, 2018)
